Results published in PMC12354831 (Cell Death Discovery, 2025).

How the values were obtained:
GLUT3 mutants = assay: TMZ/CAPE uptake by U251-MG cells stably expressing GLUT3 mutants vs WT GLUT3 (LC-MS/MS); assay type: in vitro ADME, human; details: U251-MG cells expressing GLUT3 mutants with reduced affinity vs WT GLUT3
Protocol: (§1) A total of 6 × 10^6 cells were seeded into each well of a 6 cm Petri dish and cultured at 37 °C in a humidified atmosphere containing 5% CO2 for 8 h. The cells were then washed twice with PBS (137 mM NaCl, 2.7 mM KCl, 10 mM Na2HPO4, 1.8 mM KH2PO4, pH 7.4) and incubated in transport buffer (140 mM NaCl, 5 mM KCl, 2 mM MgCl2, 2 mM CaCl2, 30 mM Tris-HCl, pH 7.4) for 15 min at 37 °C. […] Cell supernatants were collected and stored at 4 °C for subsequent extraction. The harvested cells were washed three times with PBS and extracted with 500 µL of 80% methanol for 30 min at −80 °C. The cell lysate was then centrifuged at 14,000 × g for 5 min at 4 °C, followed by 2 min of sonication. The supernatant was transferred to a new centrifuge tube. For LC-MS/MS analysis, the cell supernatants and cell lysates were diluted at a specific ratio. A total of 100 µL of each sample was mixed with 100 µL of acetonitrile (or standard reagent) and 300 µL of internal standard solution (^2H3-TMZ 100 ng/mL and ^2H11-CAPE 20 ng/mL dissolved in acetonitrile). […] Quality control (QC) samples were prepared and analyzed alongside the experimental samples to monitor the stability and repeatability of the instrument. QC samples were inserted regularly and analyzed every 6–12 samples. Each experiment was repeated 5–6 times. […]

U251-MG cells [1] = assay: CCK-8 IC50 in U251-MG cells expressing GLUT3 mutants vs WT; assay type: cell-based, human; details: GLUT3 Q159A vs GLUT3 WT
Protocol: The GBM cell line was seeded into a 96-well plate at a density of 5 × 10^3 cells per well and incubated at 37 °C in a humidified atmosphere containing 5% CO2 overnight. […] Following 24 h of drug treatment, 10 µL of CCK-8 reagent was added to each well, and the cells were incubated for an additional 1 h at 37 °C. The absorbance was then measured at 450 nm using a microplate reader.
In this study, the experimental groups were designated as Group A (cells treated with temozolomide (TMZ) or capecitabine (CAPE)), the control group as Group B (cells treated with DMSO), and the blank control group as Group C ([…]). The cell viability rate was calculated using the formula: (A-C)/(B-C) × 100%, where A, B, and C represent the absorbance values of Group A, Group B, and Group C, respectively.

U251-MG cells [2] = assay: Colony formation assay in U251-MG cells overexpressing GLUT3 Q159A, W386A or WT; assay type: cell-based, human; details: TMZ 200 μM or CAPE 400 μM every two days
Protocol: GBM cells were harvested using 0.25% trypsin when cell viability was confirmed to be optimal, and the cell concentration was determined using a hemocytometer. A total of 1 × 10³ cells were seeded into each well of a 6-well plate and incubated at 37 °C overnight. The following day, cell morphology was examined under an inverted microscope. The culture medium was replaced every 2 days, and cell growth was monitored regularly. When cell colonies exceeded 50 cells, they were recorded. The cells were then washed with pre-warmed PBS. Subsequently, the cells were fixed with 4% paraformaldehyde (1 mL per well) for 20 min at room temperature. After fixation, the cells were washed three times with PBS. A total of 1 mL of 0.1% crystal violet staining solution was added to each well for 20 min. The wells were then washed three times with distilled water, covered with a plate lid, and left to dry overnight. The number of colonies in each well was quantified using ImageJ software.
The medium was replaced every 2 days. When colonies visible to the naked eye had formed, the cells were fixed with 4% paraformaldehyde and stained with 0.1% crystal violet as described above. The colonies were then quantified using ImageJ software for statistical analysis.

GLUT3 N413A = target: T1, GLUT3 N413A (Homo sapiens, UniProt P11169, N413A); assay: TMZ uptake by U251-MG cells stably expressing GLUT3 N413A vs WT GLUT3 (LC-MS/MS); assay type: in vitro ADME
T1 construct: expressed in transfected cells; host or cells: U87 and U343 per methods
T1 sequence (P11169 1-496 N413A): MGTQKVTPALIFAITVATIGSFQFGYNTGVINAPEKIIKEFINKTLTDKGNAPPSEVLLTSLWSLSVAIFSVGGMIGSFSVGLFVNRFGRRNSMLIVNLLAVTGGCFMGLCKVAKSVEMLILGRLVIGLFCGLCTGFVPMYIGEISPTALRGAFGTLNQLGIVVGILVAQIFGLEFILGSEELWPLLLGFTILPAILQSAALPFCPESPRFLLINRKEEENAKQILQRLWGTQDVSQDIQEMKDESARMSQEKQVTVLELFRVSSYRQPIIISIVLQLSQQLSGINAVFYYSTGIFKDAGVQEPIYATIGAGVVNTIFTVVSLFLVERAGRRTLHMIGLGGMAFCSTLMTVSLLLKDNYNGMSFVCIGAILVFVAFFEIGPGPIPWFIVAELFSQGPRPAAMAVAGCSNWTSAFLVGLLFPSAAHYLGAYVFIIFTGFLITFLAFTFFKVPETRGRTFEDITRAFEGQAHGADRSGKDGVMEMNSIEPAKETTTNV
Protocol: as §1

[3] = GLUT3 Q159A vs GLUT3 WT overexpression
[4] = GLUT3 W386A vs GLUT3 WT overexpression

| SMILES | reduction in drug uptake (GLUT3 mutants) | fold increase in IC50 (U251-MG cells [1]) [fold] | fold increase in colony numbers (U251-MG cells [2]; [3]) [fold] | fold increase in colony numbers (U251-MG cells [2]; [4]) [fold] | reduction in drug uptake (GLUT3 N413A) |
| --- | --- | --- | --- | --- | --- |
| CCCCCOC(=O)Nc1nc(=O)n([C@@H]2O[C@H](C)[C@@H](O)[C@H]2O)cc1F [CAPE, capecitabine] | 75–95% | 3.6 | 1.7 | 4.4 | – |
| Cn1nnc2c(C(N)=O)ncn2c1=O [TMZ] | 60–70% | 1.3 | 0.97 | 7.3 | 40–50% |
